The target in one assay is T1, human recombinant HDAC6 (Homo sapiens, UniProt Q9UBN7).
T1 construct: purchased Calbiochem 382180
T1 sequence (Q9UBN7 1-1215): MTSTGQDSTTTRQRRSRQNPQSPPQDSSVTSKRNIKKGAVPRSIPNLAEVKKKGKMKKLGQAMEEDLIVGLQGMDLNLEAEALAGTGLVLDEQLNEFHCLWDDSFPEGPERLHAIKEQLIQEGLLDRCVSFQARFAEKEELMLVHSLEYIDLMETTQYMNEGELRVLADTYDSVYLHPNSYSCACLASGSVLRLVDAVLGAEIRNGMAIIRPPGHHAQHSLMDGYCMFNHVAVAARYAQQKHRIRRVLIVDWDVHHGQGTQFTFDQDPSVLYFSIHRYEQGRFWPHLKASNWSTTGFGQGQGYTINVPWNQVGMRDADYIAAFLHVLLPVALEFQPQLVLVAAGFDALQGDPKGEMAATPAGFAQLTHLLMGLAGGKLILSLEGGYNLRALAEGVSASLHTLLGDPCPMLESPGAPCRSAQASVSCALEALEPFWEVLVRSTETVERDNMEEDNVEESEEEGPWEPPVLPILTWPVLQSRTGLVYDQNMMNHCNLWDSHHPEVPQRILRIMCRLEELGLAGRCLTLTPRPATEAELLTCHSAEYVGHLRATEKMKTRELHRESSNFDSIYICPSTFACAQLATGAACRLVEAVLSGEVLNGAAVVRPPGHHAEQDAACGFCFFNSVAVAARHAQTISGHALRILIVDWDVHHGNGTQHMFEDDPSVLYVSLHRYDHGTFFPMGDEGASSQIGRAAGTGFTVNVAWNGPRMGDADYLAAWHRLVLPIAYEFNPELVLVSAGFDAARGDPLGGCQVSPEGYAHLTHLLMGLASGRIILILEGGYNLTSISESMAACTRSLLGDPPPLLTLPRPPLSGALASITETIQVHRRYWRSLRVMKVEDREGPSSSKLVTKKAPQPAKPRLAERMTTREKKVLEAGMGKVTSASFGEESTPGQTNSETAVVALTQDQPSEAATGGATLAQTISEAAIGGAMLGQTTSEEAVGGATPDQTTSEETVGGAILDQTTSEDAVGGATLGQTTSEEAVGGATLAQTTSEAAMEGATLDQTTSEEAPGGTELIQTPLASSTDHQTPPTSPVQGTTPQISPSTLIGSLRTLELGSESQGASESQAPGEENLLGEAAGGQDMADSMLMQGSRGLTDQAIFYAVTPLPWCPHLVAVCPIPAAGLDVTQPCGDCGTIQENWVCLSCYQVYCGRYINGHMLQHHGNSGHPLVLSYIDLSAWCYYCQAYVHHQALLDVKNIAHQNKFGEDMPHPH
Description: HDAC6 enzyme activity inhibition assay (HDAC Fluorimetric Drug Discovery Kit). The note with it: 30° C. 60 minutes. It is filed as biochemical. As for the experimental part:
(§1) In order to examine the HDAC6 selectivity of the compounds of formula I of the present invention by HDAC1 and HDAC6 enzymatic activity inhibition assays, an experiment was performed using a conventional substance as a control.
(§2) HDAC enzyme activity was measured using a HDAC Fluorimetric Drug Discovery Kit (BML-AK511, 516, Enzo Life Science). For the HDAC1 enzyme activity test, human recombinant HDAC1 (BML-SE456) was used as an enzyme source, and Fluor de Lys®-“SIRT1 (BNL-KI177) was used as a substrate. A 5-fold dilution of the compound was seeded into a 96-well plate, and then 0.3 μg of the enzyme and 10 μM of the substrate were added to each well of the plate and allowed to react at 30° C. for 60 minutes. Then, Fluor de Lys®-Developer II (BML-KI176) was added thereto and allowed to react for 30 minutes, after which the fluorescence value (Ex 360, Em 460) was measured using a multi-plate reader (Flexstation 3, Molecular Device). The HDAC6 enzyme was tested using human recombinant HDAC6 (382180) (Calbiochem) according to the same protocol as the HDAC1 enzyme activity test method. Based on the resulting values, each IC50 value was calculated using GraphPad Prism4.0 program.

For the next assay, the target named is T2, human recombinant HDAC1 (Homo sapiens, UniProt Q13547).
T2 construct: purchased Enzo Life Science BML-SE456
Kind of assay: HDAC1 enzyme activity inhibition assay (HDAC Fluorimetric Drug Discovery Kit). It counts as biochemical. The note with it: human recombinant HDAC1, 10 μM substrate, 30° C. 60 minutes. As for the experimental part:
as §1, §2

T2 sequence (Q13547 whole entry): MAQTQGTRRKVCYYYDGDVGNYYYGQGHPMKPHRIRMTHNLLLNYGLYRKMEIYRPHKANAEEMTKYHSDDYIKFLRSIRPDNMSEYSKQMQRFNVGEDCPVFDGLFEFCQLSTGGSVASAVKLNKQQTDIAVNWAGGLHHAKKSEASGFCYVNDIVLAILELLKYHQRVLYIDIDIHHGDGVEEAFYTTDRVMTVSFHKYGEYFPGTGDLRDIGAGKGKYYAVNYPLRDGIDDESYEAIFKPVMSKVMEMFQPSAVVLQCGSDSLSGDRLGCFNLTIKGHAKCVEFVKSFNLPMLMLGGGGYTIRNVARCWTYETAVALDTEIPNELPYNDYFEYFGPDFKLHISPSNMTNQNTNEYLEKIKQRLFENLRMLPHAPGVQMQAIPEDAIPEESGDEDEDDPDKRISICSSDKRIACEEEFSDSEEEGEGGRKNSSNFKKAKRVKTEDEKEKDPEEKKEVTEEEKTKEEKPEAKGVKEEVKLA

For the compound `Fc1ccc(C2(Nc3ncc(-c4nnc(C(F)(F)F)o4)cn3)CC2)cc1` [Compound 1712, N-(1-(4-fluorophenyl)cyclopropyl)-5-(5-(trifluoromethyl)-1,3,4-oxadiazol-2-yl)pyrimidin-2-amine], the IC50 was 100 nM at human recombinant HDAC6 and above 10000 nM on human recombinant HDAC1.

Take `Fc1cccc(C2(Nc3ncc(-c4nnc(C(F)F)o4)cn3)CC2)c1` [Compound 1713, 5-(5-(difluoromethyl)-1,3,4-oxadiazol-2-yl)-N-(1-(3-fluorophenyl)cyclopropyl)pyrimidin-2-amine]: the IC50 is 33 nM on human recombinant HDAC6 and above 10000 nM at human recombinant HDAC1.

Take `Fc1cccc(C2(Nc3ncc(-c4nnc(C(F)(F)F)o4)cn3)CC2)c1` [Compound 1714, N-(1-(3-fluorophenyl)cyclopropyl)-5-(5-(trifluoromethyl)-1,3,4-oxadiazol-2-yl)pyrimidin-2-amine]: the IC50 on human recombinant HDAC6 is 138 nM; at human recombinant HDAC1 it was above 10000 nM.

With `Fc1ccc(C2(Nc3ncc(-c4nnc(C(F)F)o4)cn3)CC2)cc1Cl` [Compound 1722, N-(1-(3-chloro-4-fluorophenyl)cyclopropyl)-5-(5-(difluoromethyl)-1,3,4-oxadiazol-2-yl)pyrimidin-2-amine], the IC50 was 29 nM on human recombinant HDAC6 and above 10000 nM at human recombinant HDAC1.

As to `Fc1ccc(C2(Nc3ncc(-c4nnc(C(F)(F)F)o4)cn3)CC2)cc1Cl` [Compound 1723, N-(1-(3-chloro-4-fluorophenyl)cyclopropyl)-5-(5-(trifluoromethyl)-1,3,4-oxadiazol-2-yl)pyrimidin-2-amine], the IC50 was 219 nM at human recombinant HDAC6 and above 10000 nM on human recombinant HDAC1.

Consider `FC(F)c1nnc(-c2cnc(NC3(c4ccc(C(F)(F)F)cc4)CC3)nc2)o1` [Compound 1738, 5-(5-(difluoromethyl)-1,3,4-oxadiazol-2-yl)-N-(1-(4-(trifluoromethyl)phenyl)cyclopropyl)pyrimidin-2-amine], for which the IC50 is 132 nM on human recombinant HDAC6 and above 10000 nM on human recombinant HDAC1.

As to `FC(F)c1nnc(-c2cnc(NC3(c4cccc(C(F)(F)F)c4)CC3)nc2)o1` [Compound 1740, 5-(5-(difluoromethyl)-1,3,4-oxadiazol-2-yl)-N-(1-(3-(trifluoromethyl)phenyl)cyclopropyl)pyrimidin-2-amine], the IC50 was 62 nM on human recombinant HDAC6 and above 10000 nM on human recombinant HDAC1.

`FC(F)(F)c1cccc(C2(Nc3ncc(-c4nnc(C(F)(F)F)o4)cn3)CC2)c1` [Compound 1741, 5-(5-(trifluoromethyl)-1,3,4-oxadiazol-2-yl)-N-(1-(3-(trifluoromethyl)phenyl)cyclopropyl)pyrimidin-2-amine]: the results for the IC50 on human recombinant HDAC6 and on human recombinant HDAC1 were 450 nM and above 10000 nM, respectively.

In the case of `FC(F)(F)c1ccc(C2(Nc3ncc(-c4nnc(C(F)(F)F)o4)cn3)CC2)cc1` [Compound 1742, 5-(5-(trifluoromethyl)-1,3,4-oxadiazol-2-yl)-N-(1-(4-(trifluoromethyl)phenyl)cyclopropyl)pyrimidin-2-amine], the IC50 was 531 nM on human recombinant HDAC6 and above 10000 nM on human recombinant HDAC1.

Turning to `Oc1cccc(C2(Nc3ncc(-c4nnc(C(F)F)o4)cn3)CCC2)c1` [Compound 1761, 3-(1-((5-(5-(difluoromethyl)-1,3,4-oxadiazol-2-yl)pyrimidin-2-yl)amino)cyclobutyl)phenol], the figures for the IC50 at human recombinant HDAC6 and on human recombinant HDAC1 were 25 nM and above 10000 nM, respectively.

As to `Fc1ccc(C2(Nc3ncc(-c4nnc(C(F)(F)F)o4)cn3)CC2)cc1F` [Compound 1780, N-(1-(3,4-difluorophenyl)cyclopropyl)-5-(5-(trifluoromethyl)-1,3,4-oxadiazol-2-yl)pyrimidin-2-amine], the IC50 was 420 nM at human recombinant HDAC6 and above 10000 nM at human recombinant HDAC1.

For the compound `Fc1ccc(C2(Nc3ncc(-c4nnc(C(F)F)o4)cn3)CCC2)cc1Cl` [Compound 1817, N-(1-(3-chloro-4-fluorophenyl)cyclobutyl)-5-(5-(difluoromethyl)-1,3,4-oxadiazol-2-yl)pyrimidin-2-amine], the IC50 is 78 nM on human recombinant HDAC6 and above 10000 nM at human recombinant HDAC1.

In the case of `Fc1ccc(C2(Nc3ncc(-c4nnc(C(F)(F)F)o4)cn3)CCC2)cc1Cl` [Compound 1818, N-(1-(3-chloro-4-fluorophenyl)cyclobutyl)-5-(5-(trifluoromethyl)-1,3,4-oxadiazol-2-yl)pyrimidin-2-amine], the IC50 at human recombinant HDAC6 was 751 nM; at human recombinant HDAC1, above 10000 nM.

Regarding `Fc1cc(F)cc(C2(Nc3ncc(-c4nnc(C(F)F)o4)cn3)CCC2)c1` [Compound 1819, 5-(5-(difluoromethyl)-1,3,4-oxadiazol-2-yl)-N-(1-(3,5-difluorophenyl)cyclobutyl)pyrimidin-2-amine], the figures for the IC50 on human recombinant HDAC6 and on human recombinant HDAC1 were 70 nM and above 10000 nM, respectively.

As to `FC(F)c1nnc(-c2cnc(NC3(c4ccc5c(c4)OCO5)CCC3)nc2)o1` [Compound 1820, N-(1-(benzo[d][1,3]dioxol-5-yl)cyclobutyl)-5-(5-(difluoromethyl)-1,3,4-oxadiazol-2-yl)pyrimidin-2-amine], the IC50 is 83 nM on human recombinant HDAC6 and above 10000 nM at human recombinant HDAC1.

As to `Fc1ccc(F)c(C2(Nc3ncc(-c4nnc(C(F)F)o4)cn3)CCC2)c1` [Compound 1821, 5-(5-(difluoromethyl)-1,3,4-oxadiazol-2-yl)-N-(1-(2,5-difluorophenyl)cyclobutyl)pyrimidin-2-amine], the results for the IC50 at human recombinant HDAC6 and on human recombinant HDAC1 were 32 nM and above 10000 nM, respectively.

Turning to `FC(F)c1nnc(-c2cnc(NC3(c4ccc(OC(F)(F)F)cc4)CCC3)nc2)o1` [Compound 1822, 5-(5-(difluoromethyl)-1,3,4-oxadiazol-2-yl)-N-(1-(4-(trifluoromethoxy)phenyl)cyclobutyl)pyrimidin-2-amine], the results for the IC50 on human recombinant HDAC6 and at human recombinant HDAC1 were 282 nM and above 10000 nM, respectively.

For `Fc1cc(F)c(C2(Nc3ncc(-c4nnc(C(F)F)o4)cn3)CCC2)cc1F` [Compound 1826, 5-(5-(difluoromethyl)-1,3,4-oxadiazol-2-yl)-N-(1-(2,4,5-trifluorophenyl)cyclobutyl)pyrimidin-2-amine], the results for the IC50 at human recombinant HDAC6 and on human recombinant HDAC1 were 120 nM and above 10000 nM, respectively.

As for `Fc1cccc(C2(Nc3ncc(-c4nnc(C(F)F)o4)cn3)CCC2)c1F` [Compound 1827, 5-(5-(difluoromethyl)-1,3,4-oxadiazol-2-yl)-N-(1-(2,3-difluorophenyl)cyclobutyl)pyrimidin-2-amine], the IC50 on human recombinant HDAC6 was 43 nM; at human recombinant HDAC1, above 10000 nM.

As to `Fc1cccc(F)c1C1(Nc2ncc(-c3nnc(C(F)F)o3)cn2)CCC1` [Compound 1828, 5-(5-(difluoromethyl)-1,3,4-oxadiazol-2-yl)-N-(1-(2,6-difluorophenyl)cyclobutyl)pyrimidin-2-amine], the IC50 at human recombinant HDAC6 is 39 nM; at human recombinant HDAC1, above 10000 nM.

With `FC(F)c1nnc(-c2cnc(NC3(c4cccc(Cl)c4Cl)CCC3)nc2)o1` [Compound 1832, N-(1-(2,3-dichlorophenyl)cyclobutyl)-5-(5-(difluoromethyl)-1,3,4-oxadiazol-2-yl)pyrimidin-2-amine], the values for the IC50 on human recombinant HDAC6 and at human recombinant HDAC1 were 100 nM and above 10000 nM, respectively.

For the compound `FC(F)(F)c1nnc(-c2cnc(NC3(c4cccc(Cl)c4Cl)CCC3)nc2)o1` [Compound 1833, N-(1-(2,3-dichlorophenyl)cyclobutyl)-5-(5-(trifluoromethyl)-1,3,4-oxadiazol-2-yl)pyrimidin-2-amine], the results for the IC50 at human recombinant HDAC6 and at human recombinant HDAC1 were 750 nM and above 10000 nM, respectively.

The values above are taken from US10494355B2, “Oxadiazole amine derivative compounds as histone deacetylase 6 inhibitor, and the pharmaceutical composition comprising the same” (Chong Kun Dang Pharmaceutical Corp., priority 2015, dated 2019).
